# From US8969565B2, “Imidazo[1,2-b]pyridazine-based compounds, compositions comprising them, and methods of their use” (Lexicon Pharmaceuticals, Inc., priority 2012, dated 2015)
# Legend:
# AAK1 [1] = target: T1, AAK1 (Homo sapiens, UniProt Q2M2I8); experiment: P81 filter plate assay; format: biochemical; settings: full-length human AAK1, Mu2 substrate
# T1 construct: HA; expressed in transfected cells; host or cells: HEK293F
# AAK1 [2] = target: T1, AAK1; experiment: HEK281 cell-based assay (phospho-mu2 Western blot in transfected HEK293F cells); settings: 3 hours incubation, read-out: CBA IC50
# Summary of the method: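 After 3 hours at 37° C. with compound (five 3-fold-spaced concentrations, DMEM+0.5% FBS), transiently transfected HEK293F cells expressing full-length human AAK1 and Flag-tagged mu2 were lysed. mu2 phosphorylation was read by anti-phospho-mu2 immunoblot, normalized against total mu2 by anti-Flag blot.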
# T1 sequence (Q2M2I8 1-863 isoform Q2M2I8-2): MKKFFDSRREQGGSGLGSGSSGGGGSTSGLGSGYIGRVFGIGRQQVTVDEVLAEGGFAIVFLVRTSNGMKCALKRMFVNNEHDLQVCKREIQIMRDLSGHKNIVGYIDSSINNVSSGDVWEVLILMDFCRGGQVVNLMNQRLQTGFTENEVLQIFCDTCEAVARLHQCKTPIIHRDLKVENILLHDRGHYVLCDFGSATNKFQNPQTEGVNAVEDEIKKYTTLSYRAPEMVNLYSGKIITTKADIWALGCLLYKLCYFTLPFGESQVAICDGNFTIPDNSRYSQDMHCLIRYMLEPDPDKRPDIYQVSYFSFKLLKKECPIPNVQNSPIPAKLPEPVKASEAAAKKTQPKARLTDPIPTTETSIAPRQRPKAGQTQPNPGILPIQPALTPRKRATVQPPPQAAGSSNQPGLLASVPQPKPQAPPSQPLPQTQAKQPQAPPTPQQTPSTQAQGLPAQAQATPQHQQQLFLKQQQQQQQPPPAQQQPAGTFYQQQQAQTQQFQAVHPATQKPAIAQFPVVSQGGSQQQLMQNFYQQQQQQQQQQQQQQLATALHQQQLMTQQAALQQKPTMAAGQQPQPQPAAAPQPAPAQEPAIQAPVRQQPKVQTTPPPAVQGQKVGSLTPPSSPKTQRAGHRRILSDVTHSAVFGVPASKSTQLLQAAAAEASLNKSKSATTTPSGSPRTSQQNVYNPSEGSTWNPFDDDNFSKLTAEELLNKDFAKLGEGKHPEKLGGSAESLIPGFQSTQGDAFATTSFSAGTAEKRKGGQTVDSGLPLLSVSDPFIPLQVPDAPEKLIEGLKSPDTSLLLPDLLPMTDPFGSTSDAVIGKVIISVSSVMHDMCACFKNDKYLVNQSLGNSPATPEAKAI
SMILES,IC50 (AAK1 [1]) [nM],IC50 (AAK1 [2]) [nM]
"c1cc(-c2cnc3ccc(NCCOC4CCCC4)nn23)n[nH]1 [N-(2-(cyclopentyloxy)ethyl)-3-(1H-pyrazol-3-yl)imidazo[1,2-b]pyridazin-6-amine]",≤ 100,≤ 1000
"Fc1ncccc1-c1cnc2ccc(NCCOC3CCCC3)nn12 [N-(2-(cyclopentyloxy)ethyl)-3-(2-fluoropyridin-3-yl)imidazo[1,2-b]pyridazin-6-amine]",≤ 10,≤ 1000
"COc1cncc(-c2cnc3ccc(NCCOC4CCCC4)nn23)c1 [N-(2-(cyclopentyloxy)ethyl)-3-(5-methoxypyridin-3-yl)imidazo[1,2-b]pyridazin-6-amine]",≤ 10,≤ 100
"c1ccc(-c2cnc3ccc(NCCOC4CCCC4)nn23)nc1 [N-(2-(cyclopentyloxy)ethyl)-3-(pyridin-2-yl)imidazo[1,2-b]pyridazin-6-amine]",≤ 10,≤ 100
"CC(=O)Nc1cccc(-c2cnc3ccc(NCCOC4CCCC4)nn23)c1 [N-(3-(6-((2-(cyclopentyloxy)ethyl)amino)imidazo[1,2-b]pyridazin-3-yl)phenyl)acetamide]",≤ 100,≤ 100
"CN(C(=O)OC(C)(C)C)[C@H]1CCN(c2ccc3ncc(Br)n3n2)C1 [[(S)-1-(3-Bromo-imidazo[1,2-b]pyridazin-6-yl)-pyrrolidin-3-yl]-methyl-carbamic acid tert-butyl ester]",≤ 10,≤ 1000
"COc1cccc(-c2cnc3ccc(N4CCN(C(=O)OC(C)C)CC4)nn23)c1OC [isopropyl 4-(3-(2,3-dimethoxyphenyl)imidazo[1,2-b]pyridazin-6-yl)piperazine-1-carboxylate]",≤ 10,≤ 100

# Results, then the molecule that gave them:
IC50 (AAK1 [1]) [nM],IC50 (AAK1 [2]) [nM],SMILES
≤ 10,≤ 100,"COc1ncccc1-c1cnc2ccc(N3CC[C@H](N(C)C(=O)N4CCCC4)C3)nn12 [(S)—N-(1-(3-(2-methoxypyridin-3-yl)imidazo[1,2-b]pyridazin-6-yl)pyrrolidin-3-yl)-N-methylpyrrolidine-1-carboxamide]"
≤ 10,≤ 100,"CN(C)C(=O)c1cccc(-c2cnc3ccc(N4CCN(C(=O)N5CCCC5)CC4)nn23)c1 [N,N-dimethyl-3-(6-(4-(pyrrolidine-1-carbonyl)piperazin-1-yl)imidazo[1,2-b]pyridazin-3-yl)benzamide]"
≤ 10,≤ 100,"CC(C)(C)NC(=O)N1CCN(c2ccc3ncc(-c4ccccc4)n3n2)CC1 [N-(tert-Butyl)-4-(3-phenylimidazo[1,2-b]pyridazin-6-yl)piperazine-1-carboxamide]"
≤ 10,≤ 100,"COc1ccccc1-c1cnc2ccc(N3CCN(C(=O)N(C)C(C)C)CC3)nn12 [N-isopropyl-4-(3-(2-methoxyphenyl)imidazo[1,2-b]pyridazin-6-yl)-N-methylpiperazine-1-carboxamide]"
≤ 10,≤ 1000,"COc1ccccc1-c1cnc2ccc(N3CCN(C(=O)NC(C)C)CC3)nn12 [N-isopropyl-4-(3-(2-methoxyphenyl)imidazo[1,2-b]pyridazin-6-yl)piperazine-1-carboxamide]"
≤ 10,≤ 1000,"CC(C)SC(=O)N1CCN(c2ccc3ncc(-c4ccccc4)n3n2)CC1 [S-Isopropyl 4-(3-phenylimidazo[1,2-b]pyridazin-6-yl)piperazine-1-carbothioate]"
≤ 10,≤ 100,"O=C(N1CCCC1)N1CCN(c2ccc3ncc(-c4ccccn4)n3n2)CC1 [[4-(3-Pyridin-2-yl-imidazo[1,2-b]pyridazin-6-yl)-piperazin-1-yl]-pyrrolidin-1-yl-methanone]"
≤ 10,≤ 100,"CCOC(=O)N1CCN(c2ccc3ncc(-c4ccccc4)n3n2)CC1 [ethyl 4-(3-phenylimidazo[1,2-b]pyridazin-6-yl)piperazine-1-carboxylate]"
≤ 10,≤ 1000,"CC(C)OC(=O)N1CCN(c2ccc3ncc(-c4cccc5c4OC(F)(F)O5)n3n2)CC1 [isopropyl 4-(3-(2,2-difluorobenzo[d][1,3]dioxol-4-yl)imidazo[1,2-b]pyridazin-6-yl)piperazine-1-carboxylate]"
